Patent US11317627B2, “Soybean disease control composition and soybean disease control method” (priority 2015, dated 2022)

Assays:
[1] = test system: Rhizoctonia solani; experiment: Test on mycelial growth inhibition effect against soybean Rhizoctonia rot; type: cell-based; conditions: single use, PSA, 20° C., 2 days
Method: Test Example 2: Test on Mycelial Growth Inhibition Effect Against Soybean Rhizoctonia Rot (Rhizoctonia solani)
A colony (4 mmϕ) obtained by preculture was inoculated to PSA containing a chemical agent of a predetermined concentration and, after culture at a room temperature of 20° C. for 2 days, the diameter of the grown colony was measured to determine a mycelial growth inhibition rate. Mycelial growth inhibition rate=(1−A/B)×100 • A: diameter of colony in treated section, B: diameter of colony in untreated section Colby's formula=(X+Y)−XY/100 • X: mycelial growth inhibition rate in single use of ingredient (a) • Y: mycelial growth inhibition rate in single use of ingredient (b)
Based on the obtained experimental value of the mycelial growth inhibition rate, the theoretical value of the mycelial growth inhibition rate was calculated using the Colby's formula. The theoretical value according to the Colby's formula was shown in brackets ( ) in Tables 7 to 11.
In the case where the experimental value is higher than the theoretical value, the composition of the present invention has a synergistic effect on Rhizoctonia solani.

[2] = test system: soybean rust fungus (Phakopsora pachyrhizi); experiment: Test on spore germination inhibition against soybean rust fungus; type: cell-based; conditions: single use, 25° C., 5 hours
Method: Test Example 1: Test on Spore Germination Inhibition Against Soybean Rust Fungus (Phakopsora pachyrhizi)
A spore suspension of soybean rust fungus was added to an aqueous chemical solution prepared so as to contain each test compound in a predetermined concentration and the whole was kept in a moist chamber at 25° C. for 5 hours. Thereafter, the presence of spore germination was investigated using a microscope, the spore germination rate was determined, and the spore germination inhibition rate was determined according to the following calculation formula. Spore germination inhibition rate=(1−a/b)×100 • a: spore germination rate in treated section, b: spore germination rate in untreated section Colby's formula=(X+Y)−XY/100 • X: spore germination inhibition rate in single use of ingredient (a) • Y: spore germination inhibition rate in single use of ingredient (b)
Based on the obtained spore germination inhibition rate, the theoretical value (spore germination inhibition rate) was calculated using the Colby's formula. The theoretical value according to the Colby's formula was shown in brackets ( ) in Tables 1 to 6.
In the case where the experimental value is higher than the theoretical value, the composition of the present invention has a synergistic effect on soybean rust fungus.

[3] = Rhizoctonia solani, 48 h, 0.1 ppm, read-out: Mycelial growth inhibition rate
[4] = Rhizoctonia solani, 48 h, 1 ppm, read-out: Mycelial growth inhibition rate
[5] = Phakopsora pachyrhizi, read-out: Spore germination inhibition rate
[6] = Phakopsora pachyrhizi, 0.1 ppm, read-out: Spore germination inhibition rate
[7] = Rhizoctonia solani, 48 h, read-out: Mycelial growth inhibition rate

Compound	Mycelial growth inhibition rate ([1]; 0.1 ppm)	Spore germination inhibition rate ([2]; 0.1 ppm)	Spore germination inhibition rate ([2]; 1 ppm)	inhibition at 0.1 ppm [1, 3]	inhibition at 1 ppm [1, 4]	inhibition at 0.01 ppm [2, 5]	inhibition at 0.1 ppm [2, 6]	inhibition at 0.01 ppm [1, 7]	inhibition at 0.001 ppm ([1]; Rhizoctonia solani, 48 h, 0.001 ppm, read-out: Mycelial growth inhibition rate)	Mycelial growth inhibition rate ([1]; 1 ppm)	inhibition at 1 ppm ([2]; Phakopsora pachyrhizi, 1 ppm, read-out: Spore germination inhibition rate)
Cn1cc(C(=O)Nc2cccc3c2[C@@H]2CC[C@H]3C2=C(Cl)Cl)c(C(F)F)n1 (racemic) [Benzovindiflupyr, benzovindiflupyr]	71%	45%	52%								
Fc1ccc([C@]2(Cn3cncn3)O[C@H]2c2ccccc2Cl)cc1 (racemic) [Epoxiconazole, epoxiconazole]				39%	83%	1%	5%				
CC(C1CC1)C(O)(Cn1cncn1)c1ccc(Cl)cc1 (stereo not shown) [Cyproconazole, cyproconazole]				34%	80%		9%	7%			
O=[N+]([O-])c1cc(C(F)(F)F)c(Cl)c([N+](=O)[O-])c1Nc1ncc(C(F)(F)F)cc1Cl [Fluazinam, fluazinam]	78%			73%	88%		27%	14%	2%	92%	71%
Cn1cc(C(=O)Nc2ccccc2-c2cc(F)c(F)c(F)c2)c(C(F)F)n1 [Fluxapyroxad, fluxapyroxad]	42%		41%								
OC(Cc1ccccc1Cl)(Cn1nc[nH]c1=S)C1(Cl)CC1 (stereo not shown) [Prothioconazole, prothioconazole]						37%	89%				
CC(C)(C)C(O)(CCc1ccc(Cl)cc1)Cn1cncn1 (stereo not shown) [Tebuconazole, tebuconazole]				31%	70%	12%	88%	17%			
